Data reported in patent US5190940A, “Cholesterol ester hydrolase inhibitors” (American Home Products Corporation, priority 1991, dated 1993).
Read-outs that look alike come from different tables or passages of the source.

Columns and labels:
[1] = target: T1, cholesterol esterase (cholesterol ester hydrolase; CEH) (Bos taurus, UniProt P30122); test: Inhibition of cholesteryl ester formation by cholesterol esterase (CEH), in vitro; type: biochemical, bovine
T1 construct: purchased Sigma C-1892; host or cells: bovine pancreas
T1 sequence (P30122 19-597): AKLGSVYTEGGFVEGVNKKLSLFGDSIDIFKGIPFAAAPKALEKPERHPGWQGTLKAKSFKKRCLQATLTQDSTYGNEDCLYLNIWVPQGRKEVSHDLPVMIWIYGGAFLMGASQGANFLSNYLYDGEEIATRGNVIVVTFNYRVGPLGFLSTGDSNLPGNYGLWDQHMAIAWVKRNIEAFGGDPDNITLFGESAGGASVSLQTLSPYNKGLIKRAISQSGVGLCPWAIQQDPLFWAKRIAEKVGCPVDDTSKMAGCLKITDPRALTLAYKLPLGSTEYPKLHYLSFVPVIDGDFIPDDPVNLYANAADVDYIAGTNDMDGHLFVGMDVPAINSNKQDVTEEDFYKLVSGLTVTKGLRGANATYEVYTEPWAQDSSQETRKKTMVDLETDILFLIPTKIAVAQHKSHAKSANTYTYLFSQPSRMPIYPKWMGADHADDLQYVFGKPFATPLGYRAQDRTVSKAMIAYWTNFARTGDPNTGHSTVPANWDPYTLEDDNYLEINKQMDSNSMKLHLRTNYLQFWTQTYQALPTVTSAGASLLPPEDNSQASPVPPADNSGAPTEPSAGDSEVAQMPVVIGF
Protocol: The ability of the compounds of this invention to inhibit the formation of cholesteryl esters and thereby interfere with and prevent assimilation of cholesterol into the lymphatic system and ultimately the blood stream was established by incubating the compounds at 37° C. with a mixture of cholesterol and oleic acid in the presence of buffered cholesterol esterase [([…]) Sigma No. C-1892, from bovine pancreas] and measuring the amount of ester formed, according to the procedure of Field, J. of Lipid Research, 25 389 (1984).

[2] = test system: Absorption of ^14 C-Chol.; test: In vivo cholesterol absorption study in normal rats, serum radioactivity after oral [4-^14 C] cholesterol; conditions: suspended in olive oil, normal rat, 6 hr
Protocol: The in vivo cholesterol absorption studies were conducted in normal rats by oral administration of the compound being tested suspended in olive oil followed by oral administration of [4-^14 C] cholesterol in propylene glycol, otherwise following the procedure of Cayen et al., J. Lipid Res. 20 162 (1979). The serum radioactivity was measured at six hours after dosing. The results of this study are reported in the following Table, where available, as percent decrease compared to control.

[3] = 37° C., cholesterol and oleic acid, buffered cholesterol esterase from bovine pancreas, read-out: IC50 Against CEH (concentration that inhibits one-half of the ester formation)

Row | IC50 [1, 3] [µM] | Compound | IC50 [1] [µM] | Effects on Absorption of ^14 C-Chol., percent decrease compared to control ([2]; 100 mg/kg) [%] | Effects on Absorption of ^14 C-Chol., percent decrease compared to control ([2]; 250 mg/kg) [%]
1 | – | CN1CCN(C(=O)Oc2ccccc2-c2ccccc2)CC1 [Example 12, 4-Methyl-1-piperazinecarboxylic acid[1,1'-biphenyl]-2-yl ester] | 25 | – | –
2 | – | CCCCCCCN(Cc1ccc(CC(C)(C)C)cc1)C(=O)Oc1ccccc1-c1ccccc1 [Example 2, [[4-(2,2-Dimethylpropyl)phenyl]methyl]heptylcarbamic acid[1,1'-biphenyl]-2-yl ester] | 100 | – | –
3 | 1.2 | O=C(Oc1ccccc1-c1ccccc1)N1CCSCC1 [Example 11, 4-Thiomorpholinecarboxylic acid[1.1'-biphenyl]-2-yl ester] | – | 21 | –
4 | – | O=C(NCC1CCCCC1)Oc1ccccc1-c1ccccc1 [Example 4, (Cyclohexylmethyl)carbamic acid[1,1'-biphenyl]-2-yl ester] | 3 | 21 | –
5 | 0.08 | O=C(Oc1ccccc1-c1ccccc1)N1CCCCC1 [Example 7, 1-Piperidinecarboxylic acid[1,1'-biphenyl]-2-yl ester] | – | – | 19
6 | – | O=C(NCCCCc1ccccc1)Oc1ccccc1-c1ccccc1 [Example 5, (4-Phenylbutyl)carbamic acid[1,1'-biphenyl]-2-yl ester] | 0.25 | – | 46
7 | 0.8 | CC1CCN(C(=O)Oc2ccccc2-c2ccccc2)CC1 [Example 8, 4-Methyl-1-piperidinecarboxylic acid[1,1'-biphenyl]-2-yl ester] | – | – | –
8 | – | O=C(Oc1ccccc1-c1ccccc1)N1CCOCC1 [Example 10, 4-Morpholinecarboxylic acid[1.1'-biphenyl]-2-yl ester] | 26 | – | –
9 | 38 | CC1(C)CCCN(C(=O)Oc2ccccc2-c2ccccc2)C1 [Example 6, 3,3-Dimethyl-1-piperidinecarboxylic acid[1,1'-biphenyl]-2-yl ester] | – | – | –
10 | 53 | O=C(Oc1ccccc1-c1ccccc1)N1CCN(c2ccccc2)CC1 [Example 13, 4-Phenyl-1-piperazinecarboxylic acid[1,1'-biphenyl]-2-yl ester] | – | – | –
11 | – | CCCCCCCCNC(=O)Oc1ccccc1-c1ccccc1 [Example 1, Octylcarbamic acid[1.1'-biphenyl]-2-yl ester] | 1.5 | – | –
12 | 1.9 | O=C(Oc1ccccc1-c1ccccc1)N1CCC(c2ccccc2)CC1 [Example 9, 4-Phenyl-1-piperidinecarboxylic acid[1.1'-biphenyl]-2-yl ester] | – | 11 | –
13 | – | O=C(NC1CCCCC1)Oc1ccccc1-c1ccccc1 [Example 3, Cyclohexylcarbamic acid[1,1'-biphenyl]-2-yl ester] | 5 | 21 | –
